Legend:
[1] = tested on: H3 acetylation and p21waf1,cip1 in A2780 ovarian carcinoma cells; test: Western blot of acetylated H3 and p21waf1,cip1 in A2780 cells (class I HDAC readout); assay type: cell-based, human
Description: Human A2780 ovarian carcinoma cells were incubated with the indicated concentrations of HDAC inhibitors. Total cell lysates were prepared and analysed by SDS–PAGE. […] To control for equal loading, blots were stripped and re-probed with mouse monoclonal antiactin IgM (Ab-1, Oncogene Research products, Merck, Darmstadt, Germany). […] Protein–antibody complexes were then visualised by chemiluminescence (Pierce Chemical Co., Perbioscience, Erembodegem, Belgium) or fluorescence (Odyssey) according to manufacturer's instructions.
Total cell lysates were prepared and analysed by SDS–PAGE. Levels of acetylated H3 and tubulin, and of total levels of H3 and tubulin and of p21^waf1, cip1 and Hsp70 and c-raf protein, were detected using rabbit polyclonal and mouse monoclonal antibodies, followed by ECL detection as indicated in the Methods section. To control for equal loading, blots were stripped and re-probed with antibodies against actin and the nuclear protein Lamin B1. A representative experiment out of three is shown.

[2] = tested on: ALL, AML, CLL, CML, lymphoma and myeloma tumour cells; test: cells; conditions: Homo sapiens, read-out: IC50 values, proliferation of haematological tumour cells (range over panel)
Description: The effect of HDAC inhibitors on cell proliferation was measured using an MTT (3-(4,5-dimethyl-2-thiazolyl)-2,5-diphenyl-2H-tetrazolium bromide)-based assay (Serva, Heidelberg, Germany). Cells were seeded in Falcon or NUNC 96-well culture plates (Life Technologies, Merelbeke, Belgium) in 100 μl culture medium and allowed to adhere to plastic for 18–48 h. Test compounds were dissolved in DMSO and further dilutions were made in culture medium, with final concentrations of DMSO never exceeding 0.1% (v v^−1), and incubated for 4 days. Proliferation of NSCLC was assessed using Alamar Blue-based assay. Cells were seeded in COSTAR 384-well culture plates in 45 μl culture medium and allowed to adhere to plastic for 24 h. Alamar blue was added after 72 h, with the exception of HCC-15, HCC-44, NCI-H2122 and NCI-H460, where Alamar blue was added after 90 h and OD values were measured at 4 days following compound exposure. Data are presented as mean±s.d. of three independent experiments.

[3] = tested on: H460 lung carcinoma xenograft; test: H460 lung xenograft, tumour growth; assay type: in vivo, mice; conditions: median tumour size at end of study
Description: (§1) All mice used in the in vivo studies were athymic male NMRI nu/nu mice purchased from Janvier (France) and were treated according to the ethical guidelines prescribed by UKCCCR. A2780 ovarian, HCT116 colon and H460 lung carcinoma cells were injected s.c. (10^7 cells per 200 μl) into the inguinal region of Nude mice. […] Tumour size was determined using caliper measurement and tumour volume was determined by using the formula: TV=(a^2 × b)/2 (in which a represents the width and b the length).
Mice were treated orally once daily (q.d.) between day 4 and 28 (A2780) or between day 4 and 32 (H460 and HCT116). (A) A2780 ovarian tumours were measured at least twice a week throughout the study, and results are represented as the median tumour size, expressed in mm^3, of each individual group (n=10). (B) Mice were treated orally q.d. at the indicated doses. Results are represented as the treated/control values (%) of the median tumour size (n=10) at the end of the study.

[4] = tested on: microvessel outgrowth from rat aortic rings; test: Rat aortic ring assay (angiogenesis); assay type: cell-based, Sprague-Dawley rats; conditions: 192 h, 300 nM, 8 days, compared to controls, mean±s.e.m., read-out: inhibition of total microvessel area
Description: Briefly, thoracic aorta were freshly isolated from 1- to 2-month-old Sprague–Dawley rats and 1-mm-long sections (aortic rings) were embedded in fibrin gel clots in six-well plates. […] Test compounds were added at the indicated concentrations at day 0 and again together with fresh media on day 2 and day 5 of culture. The ability of experimental compounds to inhibit microvessel outgrowth was compared directly with vehicle-treated control rings. […] Microvessel area, expressed as pixels^2, was determined for each aortic ring and the per cent inhibition of microvessel area compared to control rings was calculated using the mean values for each treatment group. Statistical differences between experimental groups (five independent rings) were analysed by ANOVA and Dunnett's t-test, with a P-value of <0.05 or less considered statistically significant.

[5] = tested on: A2780 ovarian carcinoma cells; test: A2780 tumour cell proliferation, MTT colorimetric assay; assay type: cell-based, human; conditions: Homo sapiens, A2780, 96 h, 4 days, mean±s.d.
Description: Control cells were treated with the combined respective vehicle.

[6] = Tolerability of once-daily oral dosing for 28 days; assay type: in vivo; conditions: up to 40 mpk p.o., immunodeficient mice
Description: as §1

[7] = tested on: HDAC isotypes in partially purified extract from rat liver (MAL, unselective); conditions: read-out: Liver extract MAL unselective IC50, substrate MAL
Description: After centrifugation, the cleared extract was used for immunoprecipitation of HDAC1. […] Incubation was performed for 45 min at 37°C (immunoprecipitates) or 30 min at room temperature (HeLa nuclear extract). Before addition of substrate, HDAC inhibitors were added at increasing concentrations and preincubated for 10 min at room temperature. After incubation, the reaction was quenched with 35 μl stop buffer (1 M HCl and 0.4 M acetic acid). Released [^3H]acetic acid was extracted with 800 μl ethyl acetate and quantified by scintillation counting. Equal amounts of HDAC1 were immunoprecipitated as indicated by western blot analysis. Histone deacetylase 1 activity results are presented as mean±s.d. of three independent experiments on a single lysate. […] Finally, we measured the activities of different HDAC isotypes present in partially purified extract from rat liver using the fluorescent HDAC substrates MAL (unselective), B61 (selective for HDAC1, and to some extent also converted by HDAC3) and B12 (selective for HDAC6).

[8] = tested on: A2780 ovarian carcinoma cells; test: Annexin V staining (apoptosis), FACS; assay type: cell-based, human; conditions: 48 h, concentration-dependent
Description: Human A2780 ovarian carcinoma cells were seeded at 2 × 10^6 cells per 75-cm^2 flask and, after 24 h, incubated with the indicated concentration of test compound for 48 h. The cells were subsequently collected, centrifuged and washed with PBS. The cell pellets were stained with Annexin-V-FITC antibody and propidium iodide with a kit from PharMingen, BD Biosciences, Erembodegem, Belgium (cat 66121E).
Cells were stained with Annexin V (Pharmingen) and propidium iodide, and analysed by FACS. […] Membrane-damaged cells were defined as both Annexin V- and propidium iodide-positive. Shown are mean values±variation for two independent experiments. […] Green asterisks represent mitotic cells, while red arrows point at specific DNA fragmentation. (B) Rat Aortic Ring Assays were performed as described in the Methods section.

[9] = tested on: A2780 ovarian carcinoma cells; test: Cell-cycle analysis, propidium iodide staining and FACS; assay type: cell-based, human
Description: Human A2780 ovarian carcinoma cells were seeded at 2 × 10^6 cells per 75-cm^2 flask and, after 24 h, incubated with the indicated concentration of test compound. To analyse cell-cycle distribution, sub-confluent cells were collected, centrifuged and washed with PBS. The cell pellets were re-suspended in citrate buffer and nuclei were stained with propidium iodide (Sigma-Aldrich, Bornem, Belgium) as described previously ([Vindelov et al, 1983]). Analysis was carried out using a BD-LSR flow cytometer (BD Biosciences, Erembodegem, Belgium) equipped with an argon laser (488 nm excitation). Cell-cycle profiles were analysed using WinList 3D version 4.0 and areas under the curve were calculated using ModFit LT version 3.1 (Verity Software House Inc.).
DNA content of nuclei was evaluated using propidium iodide staining followed by FACS analysis, and the number of cells in sub-G1, G1, S and G2M phase was calculated as a percentage of control. Results are expressed as % of total cells and a representative experiment out of three is shown.

For `O=C(NO)c1cnc(N2CCN(S(=O)(=O)c3ccc4ccccc4c3)CC2)nc1` [R306465], the “concentration at which H3 acetylation is induced” value ([1]; 24 h, western blot) was 100 nM, the “concentration at which p21waf1,cip1 is induced” value ([1]; 24 h, western blot) was 100 nM and the “cellular potency for HDAC1 vs HDAC6 (higher for HDAC1)” value ([1]; H3 acetylation vs tubulin acetylation) was 10 fold. The IC50 [2] was 15 to 486 nM, the “T/C values (%) H460 lung” value ([3]; 10 mpk p.o. q.d. day 4 to 32) was 56% and the “T/C values (%) H460 lung” value ([3]; 20 mpk p.o. q.d. day 4 to 32) was 64%. For the same compound, the “T/C values (%) H460 lung” value ([3]; 40 mpk p.o. q.d. day 4 to 32) was 31%, the inhibition at 0.3 µM [4] was 67 ± 7% and the IC50 [5] was 39 ± 17 nM. The tolerability [6] was “well-tolerated”, the IC50 [7] was 886 ± 85 nM and the “percentage of cells positive for Annexin V” value [8] was “significant increase”. The “G0–G1, % of total cells” value ([9]; 0.1 μM, 24 h) was 44.6%, the “G2–M, % of total cells” value ([9]; 0.1 μM, 24 h) was 28.3% and the “S-phase, % of total cells” value ([9]; 0.1 μM, 24 h) was 27.1%. For the same compound, the “G0–G1, % of total cells” value ([9]; 0.1 μM, 48 h) was 64.4%, the “G2–M, % of total cells” value ([9]; 0.1 μM, 48 h) was 17.0% and the “S-phase, % of total cells” value ([9]; 0.1 μM, 48 h) was 18.6%. For the same compound, the “G0–G1, % of total cells” value ([9]; 0.3 μM, 24 h) was 76.5%, the “G2–M, % of total cells” value ([9]; 0.3 μM, 24 h) was 7.8% and the “S-phase, % of total cells” value ([9]; 0.3 μM, 24 h) was 15.7%. The “G0–G1, % of total cells” value ([9]; 0.3 μM, 48 h) was 67.2%, the “G2–M, % of total cells” value ([9]; 0.3 μM, 48 h) was 14.9% and the “S-phase, % of total cells” value ([9]; 0.3 μM, 48 h) was 17.9%. For the same compound, the “G0–G1, % of total cells” value ([9]; 1 μM, 24 h) was 55.4%, the “G2–M, % of total cells” value ([9]; 1 μM, 24 h) was 39.2% and the “S-phase, % of total cells” value ([9]; 1 μM, 24 h) was 5.4%. For the same compound, the “G0–G1, % of total cells” value ([9]; 1 μM, 48 h) was 45.5%, the “G2–M, % of total cells” value ([9]; 1 μM, 48 h) was 44.5% and the “S-phase, % of total cells” value ([9]; 1 μM, 48 h) was 10.0%. For the same compound, the “concentration at which decrease in S phase with parallel increase in G1 phase was observed” value ([9]; 24 h incubation) was 300 nM, the “concentration at which increase in the sub-G1 fraction was observed” value ([9]; 24 h incubation) was 1 µM and the “concentration from which increase in sub-G1 phase was observed” value ([9]; 48 h incubation) was ≥ 100 nM.

— publication PMC2360244 (British Journal of Cancer, 2007)
